Toxic doses and inconclusive results are not listed.
Test system: CD2F1 mice, ip Colon 26 adenocarcinoma, median survival T/C
Assay: NCI In Vivo Anticancer Drug Screen. Data for tumor model Colon 26 Adenocarcinoma (intraperitoneal) in CD2F1 (CDF1) mice
Settings: endpoint: median survival time, higher = longer survival
Method: The antitumor activity of compounds was measured in mice bearing transplantable tumors. Survival or tumor size were measured and the results are expressed as the measurement made in the treated group (T) divided by the measurement made in the vehicle treated control group (C). The tumor model used in this assay is Colon 26 Adenocarcinoma (intraperitoneal) in CD2F1 (CDF1) mice

[1] = dose: 100.0 mg/kg/injection, schedule: Q04DX003 (ip), vehicle: Klucel (hydroxypropylcellulose) (HPC)
[2] = dose: 12.5 mg/kg/injection, schedule: Q04DX003 (ip), vehicle: saline with Tween-80
[3] = dose: 25.0 mg/kg/injection, schedule: Q04DX003 (ip), vehicle: saline with Tween-80
[4] = dose: 0.5 mg/kg/injection, schedule: Q04DX003 (ip), vehicle: saline
[5] = dose: 1.0 mg/kg/injection, schedule: Q04DX003 (ip), vehicle: saline
[6] = dose: 100.0 mg/kg/injection, schedule: Q04DX002 (ip), vehicle: distilled water + Tween-80
[7] = dose: 25.0 mg/kg/injection, schedule: Q04DX003 (ip), vehicle: saline

O=c1[nH]cc(F)c(=O)[nH]1
T/C (dose: 28.8 mg/kg/injection, schedule: Q04DX003 (sc), vehicle: other): 120 % of control
T/C (dose: 36.0 mg/kg/injection, schedule: Q04DX003 (ip), vehicle: saline): 175 % of control
T/C (dose: 40.0 mg/kg/injection, schedule: Q04DX003 (ip), vehicle: saline): 186 % of control
T/C (dose: 60.0 mg/kg/injection, schedule: Q04DX003 (ip), vehicle: saline): 164 % of control
T/C (dose: 70.0 mg/kg/injection, schedule: Q07DX003 (ip), vehicle: saline): 152 % of control
T/C (dose: 80.0 mg/kg/injection, schedule: Q04DX003 (ip), vehicle: saline): 95 % of control
T/C (dose: 100.0 mg/kg/injection, schedule: Q04DX003 (ip), vehicle: saline): 79 % of control
T/C (dose: 100.0 mg/kg/injection, schedule: Q07DX003 (ip), vehicle: saline): 165 % of control
T/C (dose: 140.0 mg/kg/injection, schedule: Q07DX003 (ip), vehicle: saline): 150 % of control
T/C (dose: 160.0 mg/kg/injection, schedule: Q04DX003 (ip), vehicle: saline): 74 % of control

CCOC(=O)C1C2OC(=O)C(C(=O)C2CN(CCCl)CCCl)C1C1CC=C(CC2=CCC(C3C4C(=O)OC(C(CN(CCCl)CCCl)C4=O)C3C(=O)OCC)CC2)CC1 (configuration not stated)
T/C [1]: 216 % of control
T/C (dose: 200.0 mg/kg/injection, schedule: Q04DX003 (ip), vehicle: Klucel (hydroxypropylcellulose) (HPC)): 232 % of control

Cc1c2ccncc2c(C)c2c1[nH]c1ccccc12
T/C (dose: 12.5 mg/kg/injection, schedule: Q04DX002 (ip), vehicle: Klucel (hydroxypropylcellulose) (HPC)): 158 % of control
T/C (dose: 12.5 mg/kg/injection, schedule: Q04DX002 (ip), vehicle: saline): 122 % of control
T/C (dose: 12.5 mg/kg/injection, schedule: Q04DX003 (ip), vehicle: Klucel (hydroxypropylcellulose) (HPC)): 186 % of control
T/C [2]: 112 % of control
T/C (dose: 25.0 mg/kg/injection, schedule: Q04DX002 (ip), vehicle: saline): 156 % of control
T/C (dose: 25.0 mg/kg/injection, schedule: Q04DX003 (ip), vehicle: Klucel (hydroxypropylcellulose) (HPC)): 263 % of control
T/C [3]: 152 % of control
T/C (dose: 50.0 mg/kg/injection, schedule: Q04DX002 (ip), vehicle: Klucel (hydroxypropylcellulose) (HPC)): 158 % of control
T/C (dose: 50.0 mg/kg/injection, schedule: Q04DX003 (ip), vehicle: Klucel (hydroxypropylcellulose) (HPC)): 242 % of control
T/C (dose: 100.0 mg/kg/injection, schedule: Q04DX002 (ip), vehicle: Klucel (hydroxypropylcellulose) (HPC)): 170 % of control
T/C (dose: 100.0 mg/kg/injection, schedule: Q04DX002 (ip), vehicle: saline): 150 % of control
T/C [1]: 242 % of control
T/C (dose: 100.0 mg/kg/injection, schedule: Q04DX003 (ip), vehicle: saline with Tween-80): 165 % of control
T/C (dose: 200.0 mg/kg/injection, schedule: Q04DX002 (ip), vehicle: saline): 156 % of control
T/C (dose: 200.0 mg/kg/injection, schedule: Q04DX003 (ip), vehicle: saline with Tween-80): 214 % of control

Cc1ncc(CNC(=O)N(CCCl)N=O)c(N)n1
T/C (dose: 25.0 mg/kg/injection, schedule: Q04DX003 (oral), vehicle: saline): 360 % of control
T/C (dose: 40.0 mg/kg/injection, schedule: Q04DX003 (oral), vehicle: saline): 340 % of control
T/C (dose: 64.0 mg/kg/injection, schedule: Q04DX003 (oral), vehicle: saline): 95 % of control

CO[C@H](C(=O)[C@@H](O)[C@@H](C)O)[C@@H]1Cc2cc3cc(OC4CC(OC5CC(O)C(O)C(C)O5)C(O)C(C)O4)c(C)c(O)c3c(O)c2C(=O)[C@H]1OC1CC(OC2CC(OC3CC(C)(O)C(O)C(C)O3)C(O)C(C)O2)C(O)C(C)O1 (some centres not stated)
T/C (dose: 0.25 mg/kg/injection, schedule: Q04DX003 (ip), vehicle: saline): 96 % of control
T/C [4]: 98 % of control
T/C [5]: 98 % of control
T/C (dose: 2.0 mg/kg/injection, schedule: Q04DX003 (ip), vehicle: saline): 100 % of control

[I][Hg][CH2]C1COC([CH2][Hg][I])CO1 (configuration not stated)
T/C [2]: 117 % of control
T/C [3]: 109 % of control
T/C (dose: 50.0 mg/kg/injection, schedule: Q04DX003 (ip), vehicle: saline with Tween-80): 96 % of control

CC1(C(=O)O)C(O)CCC2(C)C1CCC1CC3CC12CCC3(O)CO (configuration not stated)
T/C (dose: 2.5 mg/kg/injection, schedule: Q04DX002 (ip), vehicle: saline with Tween-80): 92 % of control
T/C (dose: 5.0 mg/kg/injection, schedule: Q04DX002 (ip), vehicle: saline with Tween-80): 98 % of control
T/C (dose: 10.0 mg/kg/injection, schedule: Q04DX002 (ip), vehicle: saline with Tween-80): 106 % of control
T/C (dose: 20.0 mg/kg/injection, schedule: Q04DX002 (ip), vehicle: saline with Tween-80): 95 % of control
T/C (dose: 40.0 mg/kg/injection, schedule: Q04DX002 (ip), vehicle: saline with Tween-80): 100 % of control
T/C (dose: 80.0 mg/kg/injection, schedule: Q04DX002 (ip), vehicle: saline with Tween-80): 101 % of control
T/C [6]: 94 % of control
T/C (dose: 200.0 mg/kg/injection, schedule: Q04DX002 (ip), vehicle: distilled water + Tween-80): 97 % of control

C=C1C(=O)OC2CC1CCC1(C)OC1CCC(C)=CCCC2(C)O (configuration not stated)
T/C (dose: 22.5 mg/kg/injection, schedule: Q04DX002 (ip), vehicle: Klucel (hydroxypropylcellulose) (HPC)): 105 % of control
T/C (dose: 45.0 mg/kg/injection, schedule: Q04DX002 (ip), vehicle: Klucel (hydroxypropylcellulose) (HPC)): 97 % of control
T/C (dose: 90.0 mg/kg/injection, schedule: Q04DX002 (ip), vehicle: Klucel (hydroxypropylcellulose) (HPC)): 89 % of control

CC[C@](O)(C(=O)O)c1cc2n(c(=O)c1CO)Cc1cc3ccccc3nc1-2
T/C (dose: 6.25 mg/kg/injection, schedule: Q04DX003 (ip), vehicle: saline): 114 % of control
T/C (dose: 12.5 mg/kg/injection, schedule: Q04DX003 (ip), vehicle: saline): 111 % of control
T/C [7]: 121 % of control

CC(=O)OCC1(C)C(O)CCC2(C)C1CCC1CC3CC12CCC3(O)CO (configuration not stated)
T/C (dose: 12.5 mg/kg/injection, schedule: Q04DX002 (ip), vehicle: distilled water + Tween-80): 103 % of control
T/C (dose: 25.0 mg/kg/injection, schedule: Q04DX002 (ip), vehicle: distilled water + Tween-80): 111 % of control
T/C (dose: 50.0 mg/kg/injection, schedule: Q04DX002 (ip), vehicle: distilled water + Tween-80): 95 % of control
T/C [6]: 104 % of control

OC(C1CO1)C(O)C1CO1 (configuration not stated)
T/C [4]: 110 % of control
T/C [5]: 109 % of control
T/C (dose: 7.6 mg/kg/injection, schedule: Q07DX003 (iv), vehicle: saline): 165 % of control
T/C (dose: 8.0 mg/kg/injection, schedule: Q04DX003 (ip), vehicle: saline): 338 % of control
T/C (dose: 12.0 mg/kg/injection, schedule: Q07DX003 (iv), vehicle: saline): 193 % of control

CC(C)NCC(O)COc1cccc2ccccc12 (configuration not stated)
T/C (dose: 4.0 mg/kg/injection, schedule: Q04DX003 (ip), vehicle: Klucel (hydroxypropylcellulose) (HPC)): 109 % of control
T/C (dose: 8.0 mg/kg/injection, schedule: Q04DX003 (ip), vehicle: Klucel (hydroxypropylcellulose) (HPC)): 102 % of control
T/C (dose: 16.0 mg/kg/injection, schedule: Q04DX003 (ip), vehicle: Klucel (hydroxypropylcellulose) (HPC)): 107 % of control
T/C (dose: 32.0 mg/kg/injection, schedule: Q04DX003 (ip), vehicle: Klucel (hydroxypropylcellulose) (HPC)): 101 % of control
T/C (dose: 64.0 mg/kg/injection, schedule: Q04DX003 (ip), vehicle: Klucel (hydroxypropylcellulose) (HPC)): 107 % of control

CN(N=O)C(=O)N[C@@H](C=O)[C@@H](O)[C@H](O)[C@H](O)CO
T/C (dose: 12.5 mg/kg/injection, schedule: Q04DX003 (ip), vehicle: other): 113 % of control
T/C (dose: 25.0 mg/kg/injection, schedule: Q04DX003 (ip), vehicle: other): 110 % of control
T/C (dose: 50.0 mg/kg/injection, schedule: Q04DX003 (ip), vehicle: other): 118 % of control
T/C (dose: 100.0 mg/kg/injection, schedule: Q04DX003 (ip), vehicle: other): 124 % of control
T/C (dose: 200.0 mg/kg/injection, schedule: Q04DX003 (ip), vehicle: other): 123 % of control

Nc1ncn(C2OC(CO)C(O)C2O)c(=O)n1 (configuration not stated)
T/C (dose: 13.0 mg/kg/injection, schedule: Q04DX003 (iv), vehicle: saline): 107 % of control
T/C (dose: 21.0 mg/kg/injection, schedule: Q04DX003 (iv), vehicle: saline): 92 % of control

NCCc1ccc(O)c(O)c1
T/C [7]: 94 % of control
T/C (dose: 50.0 mg/kg/injection, schedule: Q04DX003 (ip), vehicle: saline): 109 % of control

C/C=C/C1=CC(=O)C(O)C1O (configuration not stated)
T/C (dose: 45.0 mg/kg/injection, schedule: Q04DX002 (ip), vehicle: water): 106 % of control
T/C (dose: 90.0 mg/kg/injection, schedule: Q04DX002 (ip), vehicle: water): 99 % of control
T/C (dose: 180.0 mg/kg/injection, schedule: Q04DX002 (ip), vehicle: water): 101 % of control

From PubChem BioAssay AID210 (DTP/NCI, 2004)
